# According to PubChem BioAssay AID1259407 (Chemical Carcinogenesis Research Information System (CCRIS), 2018):
# Calls of active or inactive are those of the source. No rule for the calls is given here.
# Tested on: CCRIS mutagenicity, Ames/micronucleus/aberration tests
# Assay: CCRIS mutagenicity studies
# [1] = Test System: AMES SALMONELLA TYPHIMURIUM, Strain/Indicator: TA100, Metabolic Activation: NONE, Method: PREINCUBATION
smiles,measurement,setting,value
O=C(O)C(F)(F)C(F)(F)C(F)(F)C(F)(F)C(F)(F)C(F)(F)C(F)(F)C(F)(F)C(F)(F)F,mutagenic call,"Test System: AMES SALMONELLA TYPHIMURIUM, Strain/Indicator: TA98, Metabolic Activation: NONE, Method: PREINCUBATION",inactive; negative
same,mutagenic call,"Test System: AMES SALMONELLA TYPHIMURIUM, Strain/Indicator: TA98, Metabolic Activation: RAT, LIVER, S-9, Method: PREINCUBATION",inactive; negative
same,mutagenic call,[1],inactive; negative
same,mutagenic call,"Test System: AMES SALMONELLA TYPHIMURIUM, Strain/Indicator: TA100, Metabolic Activation: RAT, LIVER, S-9, Method: PREINCUBATION",inactive; negative
same,mutagenic call,"Test System: AMES SALMONELLA TYPHIMURIUM, Strain/Indicator: TA1535, Metabolic Activation: NONE, Method: PREINCUBATION",inactive; negative
same,mutagenic call,"Test System: AMES SALMONELLA TYPHIMURIUM, Strain/Indicator: TA1535, Metabolic Activation: RAT, LIVER, S-9, Method: PREINCUBATION",inactive; negative
same,mutagenic call,"Test System: AMES SALMONELLA TYPHIMURIUM, Strain/Indicator: TA1537, Metabolic Activation: NONE, Method: PREINCUBATION",inactive; negative
same,mutagenic call,"Test System: AMES SALMONELLA TYPHIMURIUM, Strain/Indicator: TA1537, Metabolic Activation: RAT, LIVER, S-9, Method: PREINCUBATION",inactive; negative
same,mutagenic call,"Test System: AMES SALMONELLA TYPHIMURIUM, Strain/Indicator: TA1538, Metabolic Activation: NONE, Method: PREINCUBATION",inactive; negative
same,mutagenic call,"Test System: AMES SALMONELLA TYPHIMURIUM, Strain/Indicator: TA1538, Metabolic Activation: RAT, LIVER, S=9, Method: PREINCUBATION",inactive; negative
same,mutagenic call,"Test System: CHINESE HAMSTER OVARY, Strain/Indicator: CHO-K1-BH4 (HGPRT), Metabolic Activation: NONE, Method: STANDARD PLATE",inactive; negative
same,mutagenic call,"Test System: CHINESE HAMSTER OVARY, Strain/Indicator: CHO-K1-BH4 (HGPRT), Metabolic Activation: RAT, LIVER, S-9, Method: STANDARD PLATE",inactive; negative
same,mutagenic call,"Test System: UDS RODENT HEPATOCYTES, Strain/Indicator: THY INCORP (NON-S-PHASE), Metabolic Activation: NONE, Method: AUTORADIOGRAPHY",inactive; negative
C[C@H](CN=[N+]=[N-])c1ccccc1,mutagenic call,[1],inactive; negative
same,mutagenic call,"Test System: AMES SALMONELLA TYPHIMURIUM, Strain/Indicator: TA100, Metabolic Activation: RAT, LIVER, S-9, PCB, Method: PREINCUBATION",active; positive
O=C1OC[C@@H](Cc2cccc(O)c2)[C@@H]1Cc1cccc(O)c1,mutagenic call,"Test System: CHINESE HAMSTER V79 CELLS, Strain/Indicator: V79 CELLS (HPRT)/6-THIOGUANINE, Metabolic Activation: NONE, Method: SUSPENSION/PLATE",inactive; negative
same,mutagenic call,"Test System: CHINESE HAMSTER V-79, Strain/Indicator: V-79 (HPRT)/6-THIOGUANINE, Metabolic Activation: NONE",inactive; negative
COC(=O)c1oc([N+](=O)[O-])c(Cl)c1Cl,mutagenic call,"Test System: AMES SALMONELLA TYPHIMURIUM, Strain/Indicator: TA98, Metabolic Activation: NONE, Method: STANDARD PLATE",active; positive
same,mutagenic call,"Test System: AMES SALMONELLA TYPHIMURIUM, Strain/Indicator: TA100(NR), Metabolic Activation: NONE, Method: STANDARD PLATE",active; positive
same,mutagenic call,"Test System: AMES SALMONELLA TYPHIMURIUM, Strain/Indicator: TA100, Metabolic Activation: NONE, Method: STANDARD PLATE (ANAEROBIC INCUBATION)",active; positive
